Results published in patent US6534090B2, “Oral osmotic controlled drug delivery system for a sparingly soluble drug” (Sun Pharmaceutical Advanced Research Centre Limited, priority 2001, dated 2003).

Legend:
[1] = Comparative experiments: anhydrous carbamazepine suspended in water or aqueous solution of a crystal habit modifier; type: physicochemical
[2] = below 4 μg/ml ineffective, above 12 μg/ml side-effects likely; cited from earlier work
[3] = cited from earlier work

length of crystals formed from anhydrous carbamazepine ([1]; in water, absence of a crystal habit modifier, long discrete needles that cluster): ≤ 500 μm
SMILES: NC(=O)N1c2ccccc2C=Cc2ccccc21 [carbamazepine, 5H-dibenz-[b,f]azepine-5-carboxamide]
conversion of anhydrous carbamazepine microcrystals ([1]; in the presence of hydroxypropyl methylcellulose): did not convert to the dihydrate crystals
therapeutic range (blood levels) [2]: 4 to 12 µg/mL
solubility in water [3]: sparingly soluble in water
